# Measurements published in ChEMBL document CHEMBL3396994, “Novel 4-aryl-pyrido[1,2-c]pyrimidines with dual SSRI and 5-HT1A activity. Part 4” (Eur J Med Chem, 2015).
# Columns and labels:
# [1] = biological target: T1, 5-hydroxytryptamine receptor 1A (Rattus norvegicus, UniProt P19327); assay: Displacement of [3H]8-OH-DPAT from rat brain hippocampus 5-HT1A receptor by radioligand binding assay
# T1 sequence (P19327 whole entry): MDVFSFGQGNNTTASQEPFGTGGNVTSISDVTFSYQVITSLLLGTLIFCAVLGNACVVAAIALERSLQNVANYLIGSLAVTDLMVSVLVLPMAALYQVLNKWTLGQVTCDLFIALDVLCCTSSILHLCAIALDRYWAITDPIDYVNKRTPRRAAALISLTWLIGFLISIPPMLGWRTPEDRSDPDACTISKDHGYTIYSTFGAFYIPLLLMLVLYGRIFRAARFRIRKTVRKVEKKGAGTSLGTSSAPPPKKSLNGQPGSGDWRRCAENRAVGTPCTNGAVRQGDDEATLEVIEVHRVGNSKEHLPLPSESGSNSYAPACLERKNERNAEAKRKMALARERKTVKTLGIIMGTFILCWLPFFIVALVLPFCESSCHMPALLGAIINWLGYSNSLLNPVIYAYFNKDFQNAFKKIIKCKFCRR
# [2] = biological target: Sodium-dependent serotonin transporter (Rattus norvegicus, UniProt P31652); assay: Displacement of [3H]citalopram from rat brain cerebral cortex SERT by liquid scintillation counting analysis; format: tissue-based
# Sodium-dependent serotonin transporter, sequence (P31652 whole entry): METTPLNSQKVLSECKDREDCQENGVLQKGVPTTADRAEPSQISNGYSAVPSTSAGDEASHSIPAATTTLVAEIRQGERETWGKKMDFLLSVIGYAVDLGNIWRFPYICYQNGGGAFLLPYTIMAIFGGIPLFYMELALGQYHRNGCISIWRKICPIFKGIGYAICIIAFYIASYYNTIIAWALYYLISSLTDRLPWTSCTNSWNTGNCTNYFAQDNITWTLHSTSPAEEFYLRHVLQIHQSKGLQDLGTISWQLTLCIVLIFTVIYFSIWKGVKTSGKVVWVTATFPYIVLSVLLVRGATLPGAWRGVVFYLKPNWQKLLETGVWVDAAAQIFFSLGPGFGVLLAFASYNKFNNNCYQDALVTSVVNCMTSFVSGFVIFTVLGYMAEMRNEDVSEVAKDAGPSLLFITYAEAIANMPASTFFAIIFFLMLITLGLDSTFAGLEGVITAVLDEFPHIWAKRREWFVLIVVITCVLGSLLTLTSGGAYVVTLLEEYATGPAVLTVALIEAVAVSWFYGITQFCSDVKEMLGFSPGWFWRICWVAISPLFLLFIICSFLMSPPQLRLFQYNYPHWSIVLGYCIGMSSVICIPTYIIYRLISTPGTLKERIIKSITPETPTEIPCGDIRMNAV
# [3] = Metabolic stability in human liver microsomes assessed as compound remaining at 10 uM after 60 mins by LC/MS analysis; format: ADME; settings: read-out: Stability
# [4] = Half life in human liver microsomes at 10 uM by LC/MS analysis; format: ADME
Structure (SMILES),Ki [1],Ki [2],"remaining at 1 h, 10 µM [3]",half-life at 10 µM [4]
COc1ccc(-c2c(=O)n(CCCCN3CC=C(c4c[nH]c5ccc(Cl)cc45)CC3)c(=O)n3ccccc23)cc1,278 nM,312 nM,,
Cc1ccccc1-c1c(=O)n(CCCCN2CC=C(c3c[nH]c4ccc(Cl)cc34)CC2)c(=O)n2ccccc12,212 nM,740 nM,,
O=c1c(-c2ccc(F)cc2)c2ccccn2c(=O)n1CCCCN1CC=C(c2c[nH]c3ccc(Cl)cc23)CC1,106 nM,329 nM,,
O=c1c(-c2ccccc2Cl)c2ccccn2c(=O)n1CCCCN1CCC(c2c[nH]c3ccc(F)cc23)CC1,15.9 nM,88.6 nM,,
COc1ccccc1-c1c(=O)n(CCCCN2CC=C(c3c[nH]c4ccc(F)cc34)CC2)c(=O)n2ccccc12,251 nM,20.8 nM,67.9%,1.57 h
O=c1c(-c2ccccc2F)c2ccccn2c(=O)n1CCCCN1CC=C(c2c[nH]c3ccc(Cl)cc23)CC1,97.1 nM,435 nM,,
Cc1ccccc1-c1c(=O)n(CCCCN2CC=C(c3c[nH]c4ccc(F)cc34)CC2)c(=O)n2ccccc12,295 nM,58.8 nM,60.5%,1.26 h
O=c1c(-c2ccc(Cl)cc2)c2ccccn2c(=O)n1CCCCN1CC=C(c2c[nH]c3ccc(Br)cc23)CC1,61.6 nM,1000 nM,,
O=c1c(-c2ccccc2Cl)c2ccccn2c(=O)n1CCCCN1CC=C(c2c[nH]c3ccc(Cl)cc23)CC1,74.4 nM,774 nM,,
O=c1c(-c2ccc(Cl)cc2)c2ccccn2c(=O)n1CCCCN1CCC(c2c[nH]c3ccc(F)cc23)CC1,84.4 nM,25.5 nM,,
COc1ccc(-c2c(=O)n(CCCCN3CC=C(c4c[nH]c5ccc(Br)cc45)CC3)c(=O)n3ccccc23)cc1,23.1 nM,326 nM,,
Cc1ccc(-c2c(=O)n(CCCCN3CC=C(c4c[nH]c5ccc(Br)cc45)CC3)c(=O)n3ccccc23)cc1,145 nM,949 nM,,
O=c1c(-c2ccc(Cl)cc2)c2ccccn2c(=O)n1CCCCN1CC=C(c2c[nH]c3ccc(F)cc23)CC1,265 nM,58.2 nM,50.2%,1 h
COc1ccc(-c2c(=O)n(CCCCN3CC=C(c4c[nH]c5ccc(F)cc45)CC3)c(=O)n3ccccc23)cc1,81.7 nM,15.6 nM,,

# More lines, now with the values ahead:
Ki [1],Ki [2],"remaining at 1 h, 10 µM [3]",half-life at 10 µM [4],Structure (SMILES)
40.1 nM,840 nM,63.2%,1.37 h,O=c1c(-c2ccccc2)c2ccccn2c(=O)n1CCCCN1CC=C(c2c[nH]c3ccc(Br)cc23)CC1
267 nM,408 nM,64.3%,1.41 h,Cc1ccc(-c2c(=O)n(CCCCN3CC=C(c4c[nH]c5ccc(Cl)cc45)CC3)c(=O)n3ccccc23)cc1
127 nM,5.2 nM,,,O=c1c(-c2ccccc2Cl)c2ccccn2c(=O)n1CCCCN1CC=C(c2c[nH]c3ccc(F)cc23)CC1
9.2 nM,25.7 nM,,,O=c1c(-c2ccccc2F)c2ccccn2c(=O)n1CCCCN1CCC(c2c[nH]c3ccc(F)cc23)CC1
32.5 nM,836 nM,,,O=c1c(-c2ccccc2F)c2ccccn2c(=O)n1CCCCN1CC=C(c2c[nH]c3ccc(Br)cc23)CC1
153 nM,30.3 nM,,,Cc1ccc(-c2c(=O)n(CCCCN3CC=C(c4c[nH]c5ccc(F)cc45)CC3)c(=O)n3ccccc23)cc1
38.5 nM,27.4 nM,,,Cc1ccc(-c2c(=O)n(CCCCN3CCC(c4c[nH]c5ccc(F)cc45)CC3)c(=O)n3ccccc23)cc1
126 nM,322 nM,,,O=c1c(-c2ccccc2)c2ccccn2c(=O)n1CCCCN1CC=C(c2c[nH]c3ccc(Cl)cc23)CC1
79.1 nM,404 nM,51.4%,1.03 h,O=c1c(-c2ccc(F)cc2)c2ccccn2c(=O)n1CCCCN1CC=C(c2c[nH]c3ccc(Br)cc23)CC1
71.5 nM,879 nM,,,Cc1ccccc1-c1c(=O)n(CCCCN2CC=C(c3c[nH]c4ccc(Br)cc34)CC2)c(=O)n2ccccc12
116 nM,3.9 nM,,,O=c1c(-c2ccccc2F)c2ccccn2c(=O)n1CCCCN1CC=C(c2c[nH]c3ccc(F)cc23)CC1
97.8 nM,718 nM,55.6%,1.13 h,COc1ccccc1-c1c(=O)n(CCCCN2CC=C(c3c[nH]c4ccc(Cl)cc34)CC2)c(=O)n2ccccc12
118 nM,27.1 nM,63.4%,1.37 h,O=c1c(-c2ccccc2)c2ccccn2c(=O)n1CCCCN1CC=C(c2c[nH]c3ccc(F)cc23)CC1
220 nM,11.3 nM,,,O=c1c(-c2ccc(F)cc2)c2ccccn2c(=O)n1CCCCN1CC=C(c2c[nH]c3ccc(F)cc23)CC1
12.8 nM,19.4 nM,,,O=c1c(-c2ccc(F)cc2)c2ccccn2c(=O)n1CCCCN1CCC(c2c[nH]c3ccc(F)cc23)CC1
5.6 nM,20.7 nM,,,COc1ccccc1-c1c(=O)n(CCCCN2CCC(c3c[nH]c4ccc(F)cc34)CC2)c(=O)n2ccccc12
12.4 nM,15.6 nM,,,O=c1c(-c2ccccc2)c2ccccn2c(=O)n1CCCCN1CCC(c2c[nH]c3ccc(F)cc23)CC1
33.1 nM,1200 nM,,,COc1ccccc1-c1c(=O)n(CCCCN2CC=C(c3c[nH]c4ccc(Br)cc34)CC2)c(=O)n2ccccc12
